From BigSolDB 2.1

COc1cc2c(cc1OC)-c1cc3ccc(OC)c(OC)c3c[n+]1CC2.[Cl-]
solubility (mole fraction)
Settings	283.15 K	288.15 K	293.15 K	298.15 K	303.15 K	308.15 K	313.15 K	318.15 K	323.15 K	328.15 K
in ethanol	0.00254	0.00299	0.00366	0.0045	0.00543	0.00651	0.00779	0.00914	0.0108	0.0127
in ethylene glycol	0.00173	0.00202	0.00242	0.003	0.00362	0.00441	0.00529	0.00631	0.00745	0.00882
in isopropanol	0.000177	0.000218	0.00028	0.000374	0.000479	0.000603	0.000754	0.000933	0.00115	0.00141
in propylene glycol	6.32e-06	9.38e-06	1.36e-05	2.11e-05	3.12e-05	4.53e-05	6.48e-05	9.27e-05	0.00013	0.00018
in water	0.000565	0.000693	0.000877	0.0011	0.00136	0.00165	0.002	0.0024	0.00287	0.00341
